# From PubChem BioAssay (NCI)
#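 Following 48 hours of exposure in 96-well plates, responses at five concentrations were used to interpolate endpoints linearly. TGI marks complete inhibition of growth.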
# Legend:
# Assay in all cases: NCI anticancer screen, dose series, 48 h
# [1] = test system: COLO 205 colon
# [2] = test system: CAKI-1 renal
# [3] = test system: OVCAR-5 ovarian
# [4] = test system: RPMI-8226 leukemia
# [5] = test system: K-562 leukemia
# [6] = test system: A498 renal
# [7] = test system: HCT-15 colon
# [8] = test system: SF-539 CNS
# [9] = test system: U251 CNS
# [10] = test system: RXF 393 renal
# [11] = test system: HOP-62 NSCLC
# [12] = test system: SR leukemia
# [13] = test system: SNB-19 CNS
# [14] = test system: HCC-2998 colon
# [15] = test system: TK-10 renal
# [16] = test system: SK-MEL-5 melanoma
# [17] = test system: LOX IMVI melanoma
# [18] = test system: SF-295 CNS
# [19] = test system: UACC-62 melanoma
# [20] = test system: SK-MEL-28 melanoma
# [21] = test system: HOP-18 NSCLC
# [22] = test system: OVCAR-3 ovarian
# [23] = test system: KM12 colon
# [24] = test system: DMS 273 small cell lung
# [25] = test system: OVCAR-4 ovarian
# [26] = test system: A549 NSCLC
# [27] = test system: IGROV1 ovarian
# [28] = test system: DMS 114 small cell lung
# [29] = test system: SW-620 colon
# [30] = test system: NCI-H522 lung
# [31] = test system: HOP-92 NSCLC
# [32] = test system: HL-60(TB) leukemia
# [33] = test system: 786-0 renal
# [34] = test system: UO-31 renal
# [35] = test system: NCI-H460 lung
# [36] = test system: ACHN renal
# [37] = test system: SF-268 CNS
# [38] = test system: SK-MEL-2 melanoma
# [39] = test system: LXFL 529 NSCLC
# [40] = test system: HCT-116 colon
# [41] = test system: MOLT-4 leukemia
# [42] = test system: M19-MEL melanoma
# [43] = test system: DLD-1 colon
# [44] = test system: OVCAR-8 ovarian
# [45] = test system: MALME-3M melanoma
# [46] = test system: CCRF-CEM leukemia
# [47] = test system: SN12C renal
# [48] = test system: NCI-H23 lung
# [49] = test system: SNB-75 CNS
# [50] = test system: HT29 colon
# [51] = test system: SK-OV-3 ovarian
# [52] = test system: M14 melanoma
# [53] = test system: UACC-257 melanoma
# [54] = test system: NCI-H226 lung
# [55] = test system: SNB-78 CNS
# [56] = test system: KM20L2 colon
# [57] = test system: EKVX NSCLC
smiles,measurement,setting,value
O=[N+]([O-])c1ccc(C2CC(c3ccc(NCc4nc5ccccc5[nH]4)cc3)=NO2)cc1 (configuration not stated),TGI,[1],> 100 µM
same,TGI,[2],> 100 µM
same,TGI,[3],> 100 µM
same,TGI,[4],> 100 µM
same,TGI,[5],> 100 µM
same,TGI,[6],73.5 µM
same,TGI,[7],> 100 µM
same,TGI,[8],> 100 µM
same,TGI,[9],> 100 µM
same,TGI,[10],> 100 µM
same,TGI,[11],> 100 µM
same,TGI,[12],> 100 µM
same,TGI,[13],> 100 µM
same,TGI,[14],> 100 µM
same,TGI,[15],> 100 µM
same,TGI,[16],32.5 µM
same,TGI,[17],> 100 µM
same,TGI,[18],> 100 µM
same,TGI,[19],> 100 µM
same,TGI,[20],> 100 µM
same,TGI,[21],> 100 µM
same,TGI,[22],57.4 µM
same,TGI,[23],> 100 µM
same,TGI,[24],> 100 µM
same,TGI,[25],> 100 µM
same,TGI,[26],> 100 µM
same,TGI,[27],> 100 µM
same,TGI,[28],> 100 µM
same,TGI,[29],> 100 µM
same,TGI,[30],> 100 µM
same,TGI,[31],> 100 µM
same,TGI,[32],> 100 µM
same,TGI,[33],> 100 µM
same,TGI,[34],> 100 µM
same,TGI,[35],> 100 µM
same,TGI,[36],> 100 µM
same,TGI,[37],> 100 µM
same,TGI,[38],> 100 µM
same,TGI,[39],97.9 µM
same,TGI,[40],> 100 µM
same,TGI,[41],> 100 µM
same,TGI,[42],> 100 µM
same,TGI,[43],> 100 µM
same,TGI,[44],> 100 µM
same,TGI,[45],> 100 µM
same,TGI,[46],> 100 µM
same,TGI,[47],> 100 µM
same,TGI,[48],> 100 µM
same,TGI,[49],> 100 µM
same,TGI,[50],> 100 µM
same,TGI,[51],> 100 µM
same,TGI,[52],> 100 µM
CC(=O)Nc1ccc(-c2nnc(SCC(=O)Nc3ccc(Cl)cc3Cl)o2)cc1,TGI,[1],68.3 µM
same,TGI,[2],> 100 µM
same,TGI,[3],> 100 µM
same,TGI,[53],> 100 µM
same,TGI,[5],> 100 µM
same,TGI,[6],> 100 µM
same,TGI,[7],> 100 µM
same,TGI,[8],84.4 µM
same,TGI,[9],38.7 µM
same,TGI,[10],66.3 µM
same,TGI,[11],> 100 µM
same,TGI,[54],99 µM
same,TGI,[55],> 100 µM
same,TGI,[13],51.9 µM
same,TGI,[14],> 100 µM
same,TGI,[15],> 100 µM
same,TGI,[16],37.4 µM
same,TGI,[17],> 100 µM
same,TGI,[18],> 100 µM
same,TGI,[20],> 100 µM
same,TGI,[21],> 100 µM
same,TGI,[22],57.9 µM
same,TGI,[23],> 100 µM
same,TGI,[24],> 100 µM
same,TGI,[25],> 100 µM
same,TGI,[26],> 100 µM
same,TGI,[27],> 100 µM
same,TGI,[28],38.7 µM
same,TGI,[29],> 100 µM
same,TGI,[30],48.3 µM
same,TGI,[32],> 100 µM
same,TGI,[33],44.3 µM
same,TGI,[34],> 100 µM
same,TGI,[35],> 100 µM
same,TGI,[36],> 100 µM
same,TGI,[37],> 100 µM
same,TGI,[38],> 100 µM
same,TGI,[39],54.7 µM
same,TGI,[40],> 100 µM
same,TGI,[41],> 100 µM
same,TGI,[56],> 100 µM
same,TGI,[42],> 100 µM
same,TGI,[43],> 100 µM
same,TGI,[44],> 100 µM
same,TGI,[45],60.3 µM
same,TGI,[46],> 100 µM
same,TGI,[47],57.5 µM
same,TGI,[48],> 100 µM
same,TGI,[49],96.6 µM
same,TGI,[50],> 100 µM
same,TGI,[51],> 100 µM
same,TGI,[52],> 100 µM
CC(=O)OC12c3ccccc3C1CCCC21OCCCO1 (configuration not stated),TGI,[1],> 100 µM
same,TGI,[2],> 100 µM
same,TGI,[3],> 100 µM
same,TGI,[4],> 100 µM
same,TGI,[53],> 100 µM
same,TGI,[5],> 100 µM
same,TGI,[6],> 100 µM
same,TGI,[7],> 100 µM
same,TGI,[8],> 100 µM
same,TGI,[9],> 100 µM
same,TGI,[10],> 100 µM
same,TGI,[11],> 100 µM
same,TGI,[54],> 100 µM
same,TGI,[55],> 100 µM
same,TGI,[13],> 100 µM
same,TGI,[14],> 100 µM
same,TGI,[15],> 100 µM
same,TGI,[17],> 100 µM
same,TGI,[18],> 100 µM
same,TGI,[19],> 100 µM
same,TGI,[20],> 100 µM
same,TGI,[21],> 100 µM
same,TGI,[22],> 100 µM
same,TGI,[23],> 100 µM
same,TGI,[24],> 100 µM
same,TGI,[25],> 100 µM
same,TGI,[26],> 100 µM
same,TGI,[27],> 100 µM
same,TGI,[28],> 100 µM
same,TGI,[29],> 100 µM
same,TGI,[30],> 100 µM
same,TGI,[33],> 100 µM
same,TGI,[34],> 100 µM
same,TGI,[35],> 100 µM
same,TGI,[36],> 100 µM
same,TGI,[37],> 100 µM
same,TGI,[38],> 100 µM
same,TGI,[57],> 100 µM
same,TGI,[39],> 100 µM
same,TGI,[40],> 100 µM
same,TGI,[41],> 100 µM
same,TGI,[56],> 100 µM
same,TGI,[42],> 100 µM
same,TGI,[43],> 100 µM
same,TGI,[44],> 100 µM
same,TGI,[45],> 100 µM
same,TGI,[46],> 100 µM
same,TGI,[47],> 100 µM
same,TGI,[48],> 100 µM
same,TGI,[49],> 100 µM
same,TGI,[50],> 100 µM
same,TGI,[51],> 100 µM
same,TGI,[52],> 100 µM
